The values that follow are results of earlier work, collected in US8618066B1 (priority 2003, dated 2013).

“Also recorded” adds a separate entry of the source. Where two headings read alike, the source gives them in different places. No end group written: not given here.

For this data set, the system named is Gram+ & Gram− bacteria, fungi, virus, mammalian/cancer cells. Particulars: cited from earlier work.
Where [1] appears, read: classes of organisms/cells the peptide is active against.

Take “Lactoferrin (Lf) peptide 2: antimicrobial peptide, Table 1 (FKCRRWQWRM; lactoferrin (Lf) peptide 2)”: the Activity result is given as “Fungi”.
“Lingual antimicrobial peptide: peptide, source Bovine (GFTQGVRNSQSCRRNKGICVPIRCPGSMRQIGTCLGAQVKCCRRK; Lingual antimicrobial peptide; listed as Bos taurus)”: the Activity result was “Gram+ & Gram−, Fungi”.
Take “MBP-1: peptide, source Maize (RSGRGECRRQCLRRHEGQPWETQECMRRCRRRG; Zea mays; MBP-1)”: the Activity entry is “Gram+ & Gram−, Fungi”.
On to “MUC7 20- Mer: peptide, source Human (LAHQKPFIRKSYKCLHKRCR; MUC7 20-Mer; listed as Homo sapiens)”, for which the Activity entry is “Gram+ & Gram−, Fungi”.
For “Melanotropin alpha (Alpha-MSH): peptide, source Bovine (SYSMEHFRWGKPV; Melanotropin alpha (Alpha-MSH); listed as Bos taurus)”, the Activity result is “Gram+, Fungi”.
For Melittin B, the Activity result under setting [1] is “Gram+ & Gram−, Fungi,; also recorded: Mammalian cells”.
“NP-3A defensin: peptide, source Rabbit (GICACRRRFCPNSERFSGYCRVNGARYVRCCSRR; NP-3A defensin; listed as Oryctolagus cuniculus)”: the Activity entry was “Gram+ & Gram−, Virus, Fungi”.
On to “Neutrophil defensin 1 (HANP-1): peptide, source Golden hamster (VTCFCRRRGCASRERHIGYCRFGNTIYRLCCRR; Neutrophil defensin 1 (HANP-1); listed as Mesocricetus auratus)”, for which the Activity entry is on record as “Gram+, Fungi”.
With “Neutrophil defensin 2 (RMAD-2): peptide, source Rhesus macaque (ACYCRIPACLAGERRYGTCFYMGRVWAFCC; neutrophil defensin 2 (RMAD-2); listed as Macaca mulatta)”, the Activity entry is “Gram+ & Gram−, Fungi”.
Regarding “Neutrophil defensin 3 (HANP-3): peptide, source Golden hamster (VTCFCRRRGCASRERLIGYCRFGNTIYGLCCRR; Neutrophil defensin 3 (HANP-3); listed as Mesocricetus auratus)”, the Activity result was “Gram+, Fungi”.
Regarding “Nigrocin 1: peptide, source Rana nigromaculata (GLLDSIKGMAISAGKGALQNLLKVASCKLDKTC; Nigrocin 1; listed as Rana nigromaculata)”, the Activity result is reported as “Gram+ & Gram−, Fungi”.
For the substance “Nigrocin 2: peptide, source Rana nigromaculata (GLLSKVLGVGKKVLCGVSGLC; Nigrocin 2; listed as Rana nigromaculata)”, the Activity entry is given as “Gram+ & Gram−, Fungi”.
As to “Opistoporin 1: peptide, source African yellow leg scorpion (GKVWDWIKSTAKKLWNSEPVKELKNTALNAAKNLVAEKIGATPS; Opistoporin 1; listed as Opistophthalmus carinatus)”, the Activity result under setting [1] was “Gram+ & Gram−, Fungi,; also recorded: Mammalian cells”.
On to “Opistoporin 2: peptide, source African yellow leg scorpion (GKVWDWIKSTAKKLWNSEPVKELKNTALNAAKNFVAEKIGATPS; Opistoporin 2; listed as Opistophthalmus carinatus)”, for which, under setting [1], the Activity entry is “Gram+ & Gram−, Fungi,; also recorded: Mammalian cells”.
“P-18: antimicrobial peptide, Table 1 (KWKLFKKIPKFLHLAKKF; listed as Penaeus vannamei)”: the Activity entry is “Gram+ & Gram−, Fungi, Cancer”.
Turning to “PN-AMP: peptide, source Japenese morning glory”, the Activity result was “Gram+, Fungi”.
On to “PW2: peptide, source Synthetic (HPLKQYWWRPSI; Synthetic PW2)”, for which the Activity result was “Fungi”.
With “Parabutoporin: peptide, source Scorpion (FKLGSFLKKAWKSKLAKKLRAKGKEMLKDYAKGLLEGGSEEVPGQ; Parabutoporin; listed as Parabuthus schlechteri)”, under setting [1], the Activity entry was “Gram+ & Gram−, Fungi,; also recorded: Mammalian cells”.
On to “Penaeidin-1: peptide, source Penoeid shrimp (YRGGYTGPIPRPPPIGRPPLRLVVCACYRLSVSDARNCCIKFGSCCHLVK; Penaeidin-1; listed as Penaeus vannamei)”, for which the Activity result is “Gram+ & Gram−, Fungi”.
“Penaeidin-4a: peptide, source Penoeid shrimp (HSSGYTRPLPKPSRPIFIRPIGCDVCYGIPSSTARLCCFRYGDCCHR; Penaeidin-4a; listed as Penaeus vannamei)”: the Activity result is “Gram+ & Gram−, Fungi”.
As to “Peptide PGQ: peptide, source African clawed frog (GVLSNVIGYLKKLGTGALNAVLKQ; Peptide PGQ; listed as Xenopus laevis)”, the Activity entry was “Gram+ & Gram−, Fungi”.
“Ponericin G!: peptide, source Ponerine ant (GWKDWAKKAGGWLKKKGPGMAKAALKAAMQ; Ponericin G1; listed as Pachycondyla goeldii)”: the Activity entry under setting [1] is “Gram+ & Gram−, Fungi”.
With “Protegrin 2: peptide, source Pig (RGGRLCYCRRRFCICV; Protegrin 2; listed as Sus scrofa)”, the Activity result is recorded as “Gram+ & Gram−, Virus, Fungi”.
Take “Protegrin 3: peptide, source Pig (RGGGLCYCRRRFCVCVGR; Protegrin 3; listed as Sus scrofa)”: the Activity result is listed as “Gram+ & Gram−, Virus, Fungi”.
In the case of “Protegrin 4: peptide, source Pig (RGGRLCYCRGWICFCVGR; Protegrin 4; listed as Sus scrofa)”, the Activity entry was “Gram+ & Gram−, Virus, Fungi”.
Consider “Protegrin 5: peptide, source Pig (RGGRLCYCRPRFCVCVGR; Protegrin 5; listed as Sus scrofa)”, for which the Activity entry is on record as “Gram+ & Gram−, Virus, Fungi”.
With “Pseudin 1: peptide, source Paradoxical frog (GLNTLKKVFQGLHEAIKLINNHVQ; Pseudin 1; listed as Pseudis paradoxa)”, the Activity result is given as “Gram+ & Gram−, Fungi”.
For the substance “Pseudo-hevein (Minor hevin): peptide, source Para rubber tree (EQCGRQAGGKLCPNNLCCSQYGWCGSSDDYCSPSKNCQSNCKGGG; Pseudo-hevein (Minor hevein); listed as Hevea brasiliensis)”, the Activity result is listed as “Fungi”.
For the substance RQRVEELSKFSKKGAAARRRK [Misgurin], the Activity entry is reported as “Gram+ & Gram−, Fungi”.
For the substance “Ranalexin-1CB: peptide, source Gree frog (FLGGLMKAFPAIICAVTKKC; Rana clamitans; Ranalexin-1CB)”, the Activity entry is given as “Gram+ & Gram−, Fungi”.
For “Ranalexin: peptide, source Bull frog (FLGGLIKIVPAMICAVTKKC; Ranalexin; listed as Rana catesbeiana)”, the Activity entry was “Gram+ & Gram−, Fungi”.
As for “Ranatuerin-2CA: peptide, source Green frog (GLFLDTLKGAAKDVAGKLLEGLKCKIAGCKP; Rana clamitans; Ranatuerin-2CA)”, the Activity entry is on record as “Gram+ & Gram−, Fungi”.
As to “Ranatuerin-2CB: peptide, source Green frog (GLFLDTLKGLAGKLLQGLKCIKAGCKP; Rana clamitans; Ranatuerin-2CB)”, the Activity result is “Gram+ & Gram−, Fungi”.
Turning to “RatNP-3: peptide, source Rat (CSCRTSSCRFGERLSGACRLNGRIYRLCC; RatNP-3; listed as Rattus norvegicus)”, the Activity result is recorded as “Gram+ & Gram−, Virus, Fungi”.
As for “SEQ ID No. 25: synthetic antifungal peptide, Table 1 (FRF)”, the Activity entry was “Fungi”.
For “SEQ ID No. 26: synthetic antifungal peptide, Table 1 (LRF)”, the Activity entry was “Fungi”.
As for “SEQ ID No. 27: synthetic antifungal peptide, Table 1 (WRF)”, the Activity entry was “Fungi”.
In the case of “SEQ ID No. 28: synthetic antifungal peptide, Table 1 (HRF)”, the Activity entry is on record as “Fungi”.
As for “SEQ ID No. 29: synthetic antifungal peptide, Table 1 (FLRF)”, the Activity result is recorded as “Fungi”.
For the substance “SEQ ID No. 30: synthetic antifungal peptide, Table 1 (WLRF)”, the Activity entry is on record as “Fungi”.
On to “SEQ ID No. 31: synthetic antifungal peptide, Table 1 (FHLRF)”, for which the Activity result is listed as “Fungi”.
On to “SEQ ID No. 32: synthetic antifungal peptide, Table 1 (FFKLRF)”, for which the Activity entry is given as “Fungi”.
Consider “SEQ ID No. 33: synthetic antifungal peptide, Table 1 (VFKLRF)”, for which the Activity entry is reported as “Fungi”.
Turning to “SEQ ID No. 34: synthetic antifungal peptide, Table 1 (HFKLRF)”, the Activity result is reported as “Fungi”.
On to “SEQ ID No. 35: synthetic antifungal peptide, Table 1 (IFKLRF)”, for which the Activity result is given as “Fungi”.
On to “SEQ ID No. 36: synthetic antifungal peptide, Table 1 (KRKLRF)”, for which the Activity entry is recorded as “Fungi”.
For the substance “SEQ ID No. 37: synthetic antifungal peptide, Table 1 (LFKLRF)”, the Activity entry is reported as “Fungi”.
Regarding “SEQ ID No. 38: synthetic antifungal peptide, Table 1 (YFKLRF)”, the Activity entry is reported as “Fungi”.
On to “SEQ ID No. 39: synthetic antifungal peptide, Table 1 (FHFKLRF)”, for which the Activity result is “Fungi”.
Consider “SEQ ID No. 42: synthetic antifungal peptide, Table 1 (RFKLRF)”, for which the Activity result is “Fungi”.
Consider “SEQ ID No. 43: synthetic antifungal peptide, Table 1 (SFKLRF)”, for which the Activity entry was “Fungi”.
With “SEQ ID No. 44: synthetic antifungal peptide, Table 1 (MFKLRF)”, the Activity result is on record as “Fungi”.
On to “SEQ ID No. 45: synthetic antifungal peptide, Table 1 (TFKLRF)”, for which the Activity result is given as “Fungi”.
Turning to “SEQ ID No. 46: synthetic antifungal peptide, Table 1 (QFKLRF)”, the Activity entry is recorded as “Fungi”.
